The values below come from US6406900B1, “Flea protease proteins, nucleic acid molecules and uses thereof” (Heska Corporation, priority 1991, dated 2002).

In this assay the test system is flea serine proteases. As to the kind of experiment: in vitro inhibition of flea protease activity. It is filed as biochemical. The text has this: In one embodiment, a protease inhibitor that can be used in a composition of the present invention to treat an animal is identified by a method including the following steps: (a) identifying candidate (i.e., putative, possible) inhibitor compounds by testing the efficacy of one or more protease inhibitors (i) in vitro for their ability to inhibit flea protease activity and/or (ii) in a flea feeding assay for their ability to reduce the survival and/or fecundity of fleas by adding the inhibitors to the blood meal of a flea being maintained, for example, in a feeding system, such as that described by Wade et al., 1988, J. Med Entomol. 25, 186-190; and (b) testing the efficacy of the candidate inhibitor compounds in animals infested with fleas. […] Furthermore, candidate inhibitor compounds identified by the flea feeding assays can include not only desired compounds but also compounds that reduce the viability and/or fecundity of fleas due to general toxicity (e.g., affecting the mitochondria of fleas).

Take aprotinin: for the setting “in the presence of serum proteins, such as are found in the blood”, the “inhibition of flea serine proteases in the presence of serum proteins” value is recorded as “does not work well”. Besides, the “inhibition of flea serine proteases” value (in vitro) was “can inhibit at least some flea serine proteases in vitro”.
